Converted amounts (≈) assume the structure as drawn.
Key:
Type in all cases: biochemical
[1] = molecular target: T1, phosphodiesterase II from respiratory tract (Cavia porcellus, UniProt A0A286XUV5); test: Measurement of phosphodiesterase-inhibiting activity, respiratory tract, II; details: guinea pig respiratory tract; 1 μM cAMP or cGMP substrate, 60 minutes at 30° C., EIA
T1 construct: fractions were extracted from respiratory tract and heart of guinea pig; from tissue; host or cells: guinea pig respiratory tract
T1 sequence (A0A286XUV5 22-936): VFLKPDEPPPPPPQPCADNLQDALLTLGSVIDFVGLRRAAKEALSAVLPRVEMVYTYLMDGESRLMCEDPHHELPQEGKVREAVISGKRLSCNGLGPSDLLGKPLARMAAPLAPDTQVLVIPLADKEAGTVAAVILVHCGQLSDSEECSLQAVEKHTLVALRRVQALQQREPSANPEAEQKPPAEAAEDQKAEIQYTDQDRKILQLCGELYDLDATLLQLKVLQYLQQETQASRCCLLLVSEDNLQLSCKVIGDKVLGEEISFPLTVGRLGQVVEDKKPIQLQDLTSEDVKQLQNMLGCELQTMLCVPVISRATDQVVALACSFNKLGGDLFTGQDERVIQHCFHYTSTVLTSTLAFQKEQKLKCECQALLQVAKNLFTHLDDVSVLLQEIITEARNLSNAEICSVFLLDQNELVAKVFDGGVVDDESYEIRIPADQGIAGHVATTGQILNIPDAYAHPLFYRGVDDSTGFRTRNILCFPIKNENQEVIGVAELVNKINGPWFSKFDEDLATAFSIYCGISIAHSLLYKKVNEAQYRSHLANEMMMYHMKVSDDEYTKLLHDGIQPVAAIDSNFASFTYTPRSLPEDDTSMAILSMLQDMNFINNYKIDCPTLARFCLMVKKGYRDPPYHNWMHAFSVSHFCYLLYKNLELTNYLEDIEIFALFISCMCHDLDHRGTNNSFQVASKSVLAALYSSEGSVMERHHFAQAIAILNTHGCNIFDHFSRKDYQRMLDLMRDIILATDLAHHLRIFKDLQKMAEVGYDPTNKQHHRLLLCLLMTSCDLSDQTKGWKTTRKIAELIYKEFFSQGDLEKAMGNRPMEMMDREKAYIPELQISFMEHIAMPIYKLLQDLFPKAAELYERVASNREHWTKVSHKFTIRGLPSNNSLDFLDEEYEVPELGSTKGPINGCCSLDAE
Procedure: (§1) Measurement of phosphodiesterase-inhibiting activity
(§2) Phosphodiestorase-containing fractions were extracted from respiratory tract and heart of guinea pig according to the method of Nicholson et al (Br. J. Pharmacol., 97, 889-897 (1989)), and used as enzyme solutions. The measurement of phosphodiesterase-inhibiting activity was performed by quantitatively determining (Linden et al, J. Immunol. Methods., 151, 209-216 (1992)) the cyclic AMP (cAMP) or cyclic GMP (cGMP) that remains as a result of enzymic reaction (Thompson et al, Biochemistry, 10, 311-316 (1971)) through enzyme immunoassay (EIA).
(§3) This was performed according to the method of Thompson et al. The enzyme solution was placed in a test tube, and 1 μM of cAMP or cGMP was added as a substrate. After reacting for 60 minutes at 30° C., the test tube was dipped for 2 minutes into boiling bath to inactivate phosphodiesterase, thus stopping the reaction. The testing compound was added to the test tube simultaneously with substrate.
(§4) 2) Quantitative determination through EIA […]

[2] = molecular target: T2, phosphodiesterase III from respiratory tract (Cavia porcellus, UniProt H0VIU9); test: Measurement of phosphodiesterase-inhibiting activity, respiratory tract, III; details: guinea pig respiratory tract; 1 μM cAMP or cGMP substrate, 60 minutes at 30° C., EIA
T2 construct: fractions were extracted from respiratory tract and heart of guinea pig; from tissue; host or cells: guinea pig respiratory tract
T2 sequence (H0VIU9 1-1132): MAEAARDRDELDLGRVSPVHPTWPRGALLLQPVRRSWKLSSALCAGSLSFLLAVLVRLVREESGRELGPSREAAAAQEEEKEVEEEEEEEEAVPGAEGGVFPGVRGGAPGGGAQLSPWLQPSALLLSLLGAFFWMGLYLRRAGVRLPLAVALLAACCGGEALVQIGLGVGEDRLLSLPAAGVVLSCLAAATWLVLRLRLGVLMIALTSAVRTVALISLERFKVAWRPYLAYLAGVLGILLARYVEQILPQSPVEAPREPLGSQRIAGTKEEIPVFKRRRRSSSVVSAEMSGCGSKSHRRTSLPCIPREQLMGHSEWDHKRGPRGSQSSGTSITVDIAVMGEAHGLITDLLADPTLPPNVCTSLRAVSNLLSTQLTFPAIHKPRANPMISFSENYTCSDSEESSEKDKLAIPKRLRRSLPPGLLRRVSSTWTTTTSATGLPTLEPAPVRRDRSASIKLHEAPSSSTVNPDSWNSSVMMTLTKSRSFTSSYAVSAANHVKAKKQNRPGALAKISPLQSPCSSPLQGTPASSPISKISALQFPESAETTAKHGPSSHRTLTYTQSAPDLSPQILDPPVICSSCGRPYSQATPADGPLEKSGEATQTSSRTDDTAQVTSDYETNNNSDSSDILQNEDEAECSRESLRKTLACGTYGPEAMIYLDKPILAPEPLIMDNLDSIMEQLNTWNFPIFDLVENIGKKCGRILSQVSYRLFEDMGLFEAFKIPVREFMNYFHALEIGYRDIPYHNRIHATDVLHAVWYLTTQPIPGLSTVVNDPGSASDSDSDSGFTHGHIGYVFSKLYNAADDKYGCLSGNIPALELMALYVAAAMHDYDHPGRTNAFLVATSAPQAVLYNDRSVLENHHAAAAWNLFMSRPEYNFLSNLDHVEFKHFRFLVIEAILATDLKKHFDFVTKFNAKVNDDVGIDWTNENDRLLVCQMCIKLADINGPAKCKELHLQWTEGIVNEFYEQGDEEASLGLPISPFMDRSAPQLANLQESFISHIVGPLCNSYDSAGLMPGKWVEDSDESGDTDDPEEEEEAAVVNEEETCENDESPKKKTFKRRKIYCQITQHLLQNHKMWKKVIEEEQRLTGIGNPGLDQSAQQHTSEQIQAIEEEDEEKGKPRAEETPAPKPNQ
Procedure: as §1, §2, §3, §4

[3] = molecular target: phosphodiesterase IV from respiratory tract; test: Measurement of phosphodiesterase-inhibiting activity, respiratory tract, IV; details: guinea pig respiratory tract; 1 μM cAMP or cGMP substrate, 60 minutes at 30° C., EIA
Procedure: as §1, §2, §3, §4

[4] = molecular target: T3, phosphodiesterase V from respiratory tract (Cavia porcellus, UniProt H0VD23); test: Measurement of phosphodiesterase-inhibiting activity, respiratory tract, V; details: guinea pig respiratory tract; 1 μM cAMP or cGMP substrate, 60 minutes at 30° C., EIA
T3 construct: fractions were extracted from respiratory tract and heart of guinea pig; from tissue; host or cells: guinea pig respiratory tract
Procedure: as §1, §2, §3, §4

[5] = molecular target: phosphodiesterase I from heart; test: Measurement of phosphodiesterase-inhibiting activity, heart, I; details: guinea pig heart; 1 μM cAMP or cGMP substrate, 60 minutes at 30° C., EIA
Procedure: as §1, §2, §3, §4

[6] = molecular target: T4, phosphodiesterase II from heart (Cavia porcellus, UniProt A0A286XUV5); test: Measurement of phosphodiesterase-inhibiting activity, heart, II; details: guinea pig heart; 1 μM cAMP or cGMP substrate, 60 minutes at 30° C., EIA
T4 construct: fractions were extracted from respiratory tract and heart of guinea pig; from tissue; host or cells: guinea pig heart
T4 sequence (A0A286XUV5 22-936): T1 sequence (A0A286XUV5 22-936)
Procedure: as §1, §2, §3, §4

[7] = molecular target: T5, phosphodiesterase III from heart (Cavia porcellus, UniProt H0VIU9); test: Measurement of phosphodiesterase-inhibiting activity, heart, III; details: guinea pig heart; 1 μM cAMP or cGMP substrate, 60 minutes at 30° C., EIA
T5 construct: fractions were extracted from respiratory tract and heart of guinea pig; from tissue; host or cells: guinea pig heart
T5 sequence (H0VIU9 1-1132): T2 sequence (H0VIU9 1-1132)
Procedure: as §1, §2, §3, §4

Q: For `CC1CC(=O)NN=C1c1c(C(C)C)nn2ccccc12` (stereo not shown) [Example 36], which IC50 [1] is on record?
A: Its IC50 is over 111 µM.

Q: What about the IC50 [2] of the same molecule?
A: Its IC50 is 14.8 µM.

Q: What about the “IC50 Respiratory tract IV” value [3] of the same molecule?
A: The value was 5 µg/mL (≈ 18.5 µM).

Q: And the IC50 [4]?
A: Its IC50 is 0.37 µM.

Q: And the “IC50 Heart I” value [5]?
A: The value was over 30 µg/mL.

Q: And the IC50 [6]?
A: The IC50 was over 111 µM.

Q: And the IC50 [7]?
A: Its IC50 is 18.5 µM.
